For 27 molecules, e/n and IC50 results are on record in patent US8586620B2, “Substituted indole compounds having NOS inhibitory activity” (NeurAxon, Inc., priority 2005, dated 2013).

Read-outs that look alike come from different tables or passages of the source.

Experiment [1] concerns the target human neuronal constitutive NOS (nNOS) (Homo sapiens (Human), UniProt P29475). Kind of experiment: Human nNOS enzyme assay, radiometric [3H]L-arginine to [3H]L-citrulline.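 As to all read-outs here: recombinant human nNOS expressed in baculovirus-infected Sf9 cells, enzyme activity measured radiometrically as turnover of [3H]L-arginine into [3H]L-citrulline.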 The note with it: for IC50: read-out: nNOSh.
Description: (§1) In a radiometric method, NO synthase activity was determined by measuring the conversion of [^3H]L-arginine to [^3H]L-citrulline.
(§2) The total volume of the reaction mixture was 150 μL in every well. […] The reaction was stopped by adding 20 μL of ice-cold buffer containing 100 mM HEPES, 3 mM EGTA, 3 mM EDTA, pH=5.5. [^3H]L-citrulline was separated by DOWEX (ion-exchange resin DOWEX 50 W X 8-400, SIGMA) and the DOWEX was removed by spinning at 12,000 g for 10 min in the centrifuge. […] All assays were performed at least in duplicate. Standard deviations were 10% or less.
The target in experiment [2] is human endothelial constitutive NOS (eNOS) (Homo sapiens (Human), UniProt P29474). Kind of experiment: Human eNOS enzyme assay, radiometric.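 Also: recombinant human eNOS expressed in baculovirus-infected Sf9 cells, activity read as [3H]L-arginine turned into [3H]L-citrulline, the product isolated on ion-exchange resin.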 The note with it: read-out: eNOSh.
Description: as §1, §2
[3] abbreviates: Table II, human NOS, dihydrochloride or monohydrochloride salts.
[4] abbreviates: Table I, human NOS, dihydrochloride or monohydrochloride salts.

For the molecule `CN(C)CCCn1ccc2ccc(NC(=N)c3cccs3)cc21` [Compound 157, N-(1-(3-(dimethylamino)propyl)-1H-indol-6-yl)thiophene-2-carboximidamide], the e/n in experiment [1] (Table II, ratio eNOSh/nNOSh) is given as 41.1. The results for the IC50 in experiment [1] (setting [3]) and in experiment [2] (setting [3]) were 0.7 µM and 28.3 µM, respectively.

`CN1CCC[C@@H]1Cc1c[nH]c2ccc(NC(=N)c3ccco3)cc12` [Compound 106, (R)-N-(3-((1-Methylpyrrolidin-2-yl)methyl)-1H-indol-5-yl)furan-2-carboximidamide]: in experiment [1] (Table I, ratio eNOSh/nNOSh), the e/n is listed as 13.0. Further, the results for the IC50 in experiment [1] (setting [4]) and in experiment [2] (setting [4]) were 2.08 µM and 27.1 µM, respectively.

Regarding `N=C(Nc1ccc2ccn(CCCCn3ccnc3)c2c1)c1cccs1` [Compound 168, N-(1-(4-(1H-imidazol-1-yl)butyl)-1H-indol-6-yl)thiophene-2-carboximidamide], in experiment [1] (Table II, ratio eNOSh/nNOSh), the e/n is recorded as 9.6. For the same molecule, the IC50 in experiment [1] (setting [3]) amounted to 0.26 µM; in experiment [2] (setting [3]), 2.53 µM.

Turning to `CN1CCC[C@H]1CCn1ccc2ccc(NC(=N)c3cccs3)cc21` [Compound 139], the e/n in experiment [1] (Table II, ratio eNOSh/nNOSh) is 120. Besides, the IC50 in experiment [1] (setting [3]) was found to be 0.2 µM; in experiment [2] (setting [3]), 24 µM.

For the molecule `N=C(Nc1ccc2ccn(CCN3CCCCC3)c2c1)c1cccs1` [Compound 136], the e/n in experiment [1] (Table II, ratio eNOSh/nNOSh) is recorded as 7.8. For the same molecule, the IC50 worked out at 0.49 µM in experiment [1] (setting [3]) and 3.8 µM in experiment [2] (setting [3]).

As for `N=C(Nc1ccc2[nH]cc(C3CN4CCC3CC4)c2c1)c1ccco1` (centres unmarked) [Compound 127, N-(3-(quinuclidin-3-yl)-1H-indol-5-yl)furan-2-carboximidamide], in experiment [1] (Table I, ratio eNOSh/nNOSh), the e/n was found to be 25.3. For the same molecule, the IC50 in experiment [1] (setting [4]) came out at 2.6 µM; in experiment [2] (setting [4]) it was 66 µM.

As to `CN(C)C1CC=C(c2c[nH]c3ccc(NC(=N)c4cccs4)cc23)CC1` (centres unmarked) [Compound 114, N-(3-(4-(dimethylamino)cyclohex-1-enyl)-1H-indol-5-yl)thiophene-2-carboximidamide], in experiment [1] (Table I, ratio eNOSh/nNOSh), the e/n is 17.1. Besides, the figures for the IC50 in experiment [1] (setting [4]) and in experiment [2] (setting [4]) were 3 µM and 51.4 µM, respectively.

As to `CN1CCC[C@@H]1CCn1ccc2ccc(NC(=N)c3cccs3)cc21` [Compound 138], in experiment [1] (Table II, ratio eNOSh/nNOSh), the e/n was 50. The values for the IC50 in experiment [1] (setting [3]) and in experiment [2] (setting [3]) were 0.32 µM and 16 µM, respectively.

`N=C(Nc1ccc2[nH]cc(C3CN4CCC3CC4)c2c1)c1cccs1` (centres unmarked) [Compound 126, N-(3-(quinuclidin-3-yl)-1H-indol-5-yl)thiophene-2-carboximidamide]: the e/n in experiment [1] (Table I, ratio eNOSh/nNOSh) worked out at 30.9. For the same molecule, the results for the IC50 in experiment [1] (setting [4]) and in experiment [2] (setting [4]) were 1.04 µM and 32.1 µM, respectively.

For the molecule `N=C(Nc1ccc2ccn(CCc3ccccc3)c2c1)c1cccs1` [Compound 115], the e/n in experiment [1] (Table II, ratio eNOSh/nNOSh) is reported as more than 8.3. The IC50 in experiment [1] is 12 µM; in experiment [2], more than 100 µM.

For the molecule `CN(C)CCc1c[nH]c2ccc(CNC(=N)c3cccs3)cc12` [Compound 59, N-((3-(2-(dimethylamino)ethyl)-1H-indol-5-yl)methyl)thiophene-2-carboximidamide], in experiment [1], the e/n is recorded as 7 and the IC50 worked out at 12.8 µM. The IC50 in experiment [2] (setting [4]) stood at 86.2 µM.

With `CSC(=N)Nc1ccc2[nH]cc(C3=CCN(C)CC3)c2c1` [Compound 75, Methyl 3-(1-methyl-1,2,3,6-tetrahydropyridin-4-yl)-1H-indol-5-ylcarbamimidothioate], the e/n in experiment [1] (Table I, ratio eNOSh/nNOSh) is recorded as 16.0. Besides, the IC50 in experiment [1] (setting [4]) was found to be 2.25 µM; in experiment [2] (setting [4]) it was 36.1 µM.

`CNCCCn1ccc2ccc(NC(=N)c3cccs3)cc21` [Compound 161]: the e/n in experiment [1] (Table II, ratio eNOSh/nNOSh) amounted to 5.57. Moreover, the IC50 in experiment [1] (setting [3]) was found to be 1.78 µM; in experiment [2] (setting [3]), 9.91 µM.

With `CCSC(=N)Nc1ccc2[nH]cc(C3=CCN(C)CC3)c2c1` [Compound 67, Ethyl 3-(1-methyl-1,2,3,6-tetrahydropyridin-4-yl)-1H-indol-5-ylcarbamimidothioate], the e/n in experiment [1] (Table I, ratio eNOSh/nNOSh) is on record as 22. In addition, the IC50 turned out to be 4.8 µM in experiment [1] (setting [4]) and 105 µM in experiment [2] (setting [4]).

On to `N=C(Nc1ccc2[nH]cc(C3CCN(C(=N)c4cccs4)CC3)c2c1)c1cccs1` [Compound 77, N-(3-(1-(imino(thiophen-2-yl)methyl)piperidin-4-yl)-1H-indol-5-yl)thiophene-2-carboximidamide], for which the e/n in experiment [1] (Table I, ratio eNOSh/nNOSh) was found to be 6.19. The IC50 in experiment [1] (setting [4]) came to 0.717 µM; in experiment [2] (setting [4]) it was 4.44 µM.

Regarding `CN1CC=C(c2c[nH]c3ccc(NC(=S)NC(=O)c4ccccc4)cc23)CC1` [Compound 64, N-(3-(1-methyl-1,2,3,6-tetrahydropyridin-4-yl)-1H-indol-5-ylcarbamothioyl)benzamide], the e/n in experiment [1] (Table I, ratio eNOSh/nNOSh) is listed as 3. The IC50 in experiment [1] (setting [4]) was 14 µM; in experiment [2] (setting [4]) it was 43 µM.

Take `CN1CCCC(n2ccc3ccc(NC(=N)c4cccs4)cc32)CC1` (centres unmarked) [Compound 156]: in experiment [1] (Table II, ratio eNOSh/nNOSh), the e/n is given as 42.5. Further, the IC50 stood at 0.87 µM in experiment [1] (setting [3]) and 37 µM in experiment [2] (setting [3]).

With `CCN(CC)CCCn1ccc2ccc(NC(=N)c3cccs3)cc21` [Compound 158], the e/n in experiment [1] (Table II, ratio eNOSh/nNOSh) turned out to be 17.2. Also, the figures for the IC50 in experiment [1] (setting [3]) and in experiment [2] (setting [3]) were 0.59 µM and 10.2 µM, respectively.

As to `CN(C)CCCn1ccc2ccc(NC(=N)c3cccs3)cc21` [Compound 160], the e/n in experiment [1] (Table II, ratio eNOSh/nNOSh) is on record as 2.11. In addition, the IC50 in experiment [1] (setting [3]) was 2.73 µM; in experiment [2] (setting [3]), 5.77 µM.

Turning to `CN(C)C1CCC(c2c[nH]c3ccc(NC(=N)c4cccs4)cc23)CC1` (centres unmarked) [Compound 116, N-(3-(4-(dimethylamino)cyclohexyl)-1H-indol-5-yl)thiophene-2-carboximidamide], the e/n in experiment [1] (Table I, ratio eNOSh/nNOSh) turned out to be 9.2. For the same molecule, in experiment [2] (setting [4]), the IC50 stood at 31.8 µM.

Regarding `N=C(Nc1ccc2ccn(CCCN3CCOCC3)c2c1)c1ccco1` [Compound 183], in experiment [1] (Table II, ratio eNOSh/nNOSh), the e/n stood at 14.2. Moreover, the IC50 was found to be 2.4 µM in experiment [1] (setting [3]) and 34 µM in experiment [2] (setting [3]).

As for `N=C(Nc1ccc2[nH]cc(C3CCN(C(=O)c4ccccc4)CC3)c2c1)c1cccs1` [Compound 70, N-(3-(1-benzoylpiperidin-4-yl)-1H-indol-5-yl)thiophene-2-carboximidamide], in experiment [1] (Table I, ratio eNOSh/nNOSh), the e/n is 9.06. Moreover, the IC50 amounted to 5.62 µM in experiment [1] (setting [4]) and 50.9 µM in experiment [2] (setting [4]).

Take `CNC1CC=C(c2c[nH]c3ccc(NC(=N)c4cccs4)cc23)CC1` (centres unmarked) [Compound 100, N-(3-(4-(methylamino)cyclohex-1-enyl)-1H-indol-5-yl)thiophene-2-carboximidamide]: the e/n in experiment [1] (Table I, ratio eNOSh/nNOSh) is 18.5. Also, the IC50 in experiment [1] (setting [4]) is 1.73 µM; in experiment [2] (setting [4]), 32 µM.

As to `CN1CCCC1CCn1c(Cc2ccccc2)cc2ccc(NC(=N)c3cccs3)cc21` (centres unmarked) [Compound 162], the e/n in experiment [1] (Table II, ratio eNOSh/nNOSh) is reported as 14.3. The IC50 in experiment [1] (setting [3]) amounted to 2.3 µM; in experiment [2] (setting [3]), 33 µM.

For the molecule `CCN1CCC(c2c[nH]c3ccc(NC(=N)c4cccs4)cc23)CC1` [Compound 62, N-(3-(1-ethylpiperidin-4-yl)-1H-indol-5-yl)thiophene-2-carboximidamide], the e/n in experiment [1] (Table I, ratio eNOSh/nNOSh) was determined as 24. Moreover, the IC50 was 2.43 µM in experiment [1] (setting [4]) and 57.3 µM in experiment [2] (setting [4]).

With `N=C(Nc1ccc2ccn(CCCN3CCOCC3)c2c1)c1ccsc1` [Compound 182], the e/n in experiment [1] (Table II, ratio eNOSh/nNOSh) turned out to be 12.1. For the same molecule, the IC50 was determined as 1.4 µM in experiment [1] (setting [3]) and 17 µM in experiment [2] (setting [3]).

Regarding `N=C(Nc1ccc2ccn(CCCN3CCOCC3)c2c1)c1ccoc1` [Compound 184], in experiment [1] (Table II, ratio eNOSh/nNOSh), the e/n amounted to 19. The IC50 came out at 1 µM in experiment [1] (setting [3]) and 19 µM in experiment [2] (setting [3]).
